Reference: the supplement of paper PMC4932681

How the values were obtained:
ZR-75-1 [1] = assay: relative IC50 (midpoint of fitted logistic curve, plateau may be below 50% inhibition; CellTiter-Glo viability); higher = less potent; settings: 72 h
Procedure, shortened: (§1)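 After seeding into 384-well plates with library drugs at five concentrations spanning a 10 000-fold range, breast cancer cell lines and their resistant derivatives were incubated 72 h at 37 °C. Resistant lines received medium with 1 μM of the selecting drug. CellTiter-Glo signal was read on a PHERAstar and scaled to vehicle-only and positive controls. Drug sensitivity score, relative IC50 (the curve midpoint) and top-dose inhibition came from logistic fits run in the Breeze pipeline.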

T-47D Tam2 [2] = assay: as above; settings: 4-OH-tamoxifen in medium 1 µM; 72 h
Procedure, shortened: as §1

BT-474 Tam2 [3] = assay: as above; settings: 4-OH-tamoxifen in medium 1 µM; 72 h
Procedure, shortened: as §1

MCF-7 Tam1 [4] = assay: as above; settings: 4-OH-tamoxifen in medium 1 µM; 72 h
Procedure, shortened: as §1

BT-474 [5] = assay: as above; settings: 72 h
Procedure, shortened: as §1

MCF-7 [6] = assay: as above; settings: 72 h
Procedure, shortened: as §1

ZR-75-1 Tam1 [7] = assay: as above; settings: 4-OH-tamoxifen in medium 1 µM; 72 h
Procedure, shortened: as §1

ZR-75-1 Tam2 [8] = assay: as above; settings: 4-OH-tamoxifen in medium 1 µM; 72 h
Procedure, shortened: as §1

T-47D [9] = assay: as above; settings: 72 h
Procedure, shortened: as §1

BT-474 Tam1 [10] = assay: as above; settings: 4-OH-tamoxifen in medium 1 µM; 72 h
Procedure, shortened: as §1

ZR-75-1 [11] = assay: drug sensitivity score (DSS) (DSS (dimensionless)); higher = more sensitive; extreme values may be limits of the assay; settings: 72 h
Procedure, shortened: as §1

T-47D Tam2 [12] = assay: as above; settings: 4-OH-tamoxifen in medium 1 µM; 72 h
Procedure, shortened: as §1

T-47D Tam1 = assay: as above; settings: 4-OH-tamoxifen in medium 1 µM; 72 h
Procedure, shortened: as §1

BT-474 Tam2 [13] = assay: as above; settings: 4-OH-tamoxifen in medium 1 µM; 72 h
Procedure, shortened: as §1

MCF-7 Tam1 [14] = assay: as above; settings: 4-OH-tamoxifen in medium 1 µM; 72 h
Procedure, shortened: as §1

BT-474 [15] = assay: as above; settings: 72 h
Procedure, shortened: as §1

MCF-7 [16] = assay: as above; settings: 72 h
Procedure, shortened: as §1

ZR-75-1 Tam1 [17] = assay: as above; settings: 4-OH-tamoxifen in medium 1 µM; 72 h
Procedure, shortened: as §1

ZR-75-1 Tam2 [18] = assay: as above; settings: 4-OH-tamoxifen in medium 1 µM; 72 h
Procedure, shortened: as §1

T-47D [19] = assay: as above; settings: 72 h
Procedure, shortened: as §1

BT-474 Tam1 [20] = assay: as above; settings: 4-OH-tamoxifen in medium 1 µM; 72 h
Procedure, shortened: as §1

SMILES | relative IC50 (ZR-75-1 [1]; 4-OH-tamoxifen in medium 0 µM) | relative IC50 (ZR-75-1 [1]; 4-OH-tamoxifen in medium 1 µM) | relative IC50 (T-47D Tam2 [2]) | relative IC50 (BT-474 Tam2 [3]) | relative IC50 (MCF-7 Tam1 [4]) | relative IC50 (BT-474 [5]; 4-OH-tamoxifen in medium 0 µM) | relative IC50 (BT-474 [5]; 4-OH-tamoxifen in medium 1 µM) | relative IC50 (MCF-7 [6]; 4-OH-tamoxifen in medium 0 µM) | relative IC50 (ZR-75-1 Tam1 [7]) | relative IC50 (ZR-75-1 Tam2 [8]) | relative IC50 (T-47D [9]; 4-OH-tamoxifen in medium 0 µM) | relative IC50 (T-47D [9]; 4-OH-tamoxifen in medium 1 µM) | relative IC50 (BT-474 Tam1 [10]) | drug sensitivity score (ZR-75-1 [11]; 4-OH-tamoxifen in medium 0 µM) | drug sensitivity score (ZR-75-1 [11]; 4-OH-tamoxifen in medium 1 µM) | drug sensitivity score (T-47D Tam2 [12]) | drug sensitivity score (T-47D Tam1) | drug sensitivity score (BT-474 Tam2 [13]) | drug sensitivity score (MCF-7 Tam1 [14]) | drug sensitivity score (BT-474 [15]; 4-OH-tamoxifen in medium 0 µM) | drug sensitivity score (BT-474 [15]; 4-OH-tamoxifen in medium 1 µM) | drug sensitivity score (MCF-7 [16]; 4-OH-tamoxifen in medium 0 µM) | drug sensitivity score (MCF-7 [16]; 4-OH-tamoxifen in medium 1 µM) | drug sensitivity score (ZR-75-1 Tam1 [17]) | drug sensitivity score (ZR-75-1 Tam2 [18]) | drug sensitivity score (T-47D [19]; 4-OH-tamoxifen in medium 0 µM) | drug sensitivity score (T-47D [19]; 4-OH-tamoxifen in medium 1 µM) | drug sensitivity score (BT-474 Tam1 [20]) | relative IC50 (MCF-7 [6]; 4-OH-tamoxifen in medium 1 µM)
C[C@]12CC[C@@H]3c4ccc(O)cc4C[C@@H](CCCCCCCCC[S+]([O-])CCCC(F)(F)C(F)(F)F)[C@H]3[C@@H]1CC[C@@H]2O (stereo partly specified) [Fulvestrant] | > 1000 nM | > 1000 nM | > 1000 nM | > 1000 nM | > 1000 nM | > 1000 nM | > 1000 nM | 6.43 nM | > 1000 nM | > 1000 nM | > 1000 nM | 45 nM | > 1000 nM | 0 | 0 | 0 | 0.0366 | 0 | 0 | 0 | 0 | 7.84 | 0.235 | 0 | 0 | 0 | 5.21 | 0 | 
C/C(=C\c1csc(C)n1)[C@@H]1C[C@@H]2O[C@]2(C)CCC[C@H](C)[C@H](O)[C@@H](C)C(=O)C(C)(C)[C@@H](O)CC(=O)N1 [Ixabepilone] | > 1000 nM | > 1000 nM | 229 nM | > 1000 nM | > 1000 nM | > 1000 nM | 436 nM |  | > 1000 nM | > 1000 nM | 415 nM |  | > 1000 nM | 0 | 0 | 2.1 | 0.349 | 0 | 0 | 0 | 1.39 | 0.882 | 1 | 0 | 0 | 1.7 | 0.538 | 0 | 
CCN(CC)CCNC(=O)c1c(C)[nH]c(/C=C2\C(=O)Nc3ccc(F)cc32)c1C | > 1000 nM | > 1000 nM | > 1000 nM | > 1000 nM | > 1000 nM | > 1000 nM | 276 nM | > 1000 nM | > 1000 nM | > 1000 nM | > 1000 nM |  |  | 0 | 0 | 0 | 0.199 | 0 | 0 | 0 | 1.81 | 0 | 0 | 0 | 0 | 0 | 0.383 | 0.118 | > 1000 nM
